Laboratory results reported in US20100062961A1, “Good Foaming Creamy or Paste-Like Cleansers Comprising Floor Levels of Long Chain Lipids or Lipid Mimics” (CONOPCO, INC., D/B/A UNILEVER, priority 2008, published 2010).
One block for each compound: values may come before it.

Tests used:
[1] = Krafft point: lowest temperature at which cloudiness is observed in a 1% by weight surfactant solution; format: physicochemical; settings: 1% by weight solution; upper bound, solution observed clear at stated temperature
Text: The Krafft temperature is the minimum temperature at which surfactants form micelles. […] Below the Krafft temperature, there is no value for the critical micelle concentration (CMC), i.e., surfactant micelles will not form. A portion of the surfactant exists as a precipitate and the mixture of surfactant and water will appear cloudy or have an obvious phase settled at the bottom of a sample below the Krafft temperature. We consider only surfactants or mixtures of surfactants with Krafft temperatures at or below 20° C., so it suffices to verify that the surfactant mixtures of interest are completely soluble at 20° C. We verified this for the commercial surfactant solutions of interest. In particular, we have verified that the Krafft temperature for mixtures of sodium lauryl-1-ether sulfate and cocoamidopropyl betaine, and for mixtures of the commercial blend known as Miracare SLB lies below 20° C.
Our operational definition of Krafft point here is the lowest temperature at which cloudiness is observed in a 1% by weight solution of surfactant. The table indicates the upper bound on Krafft point, i.e., solution observed to be clear at stated temperature.

[2] = typical anionic surfactant; cited from earlier work
[3] = Solubility of lipid in 5% surfactant solution, Method A visual observation; format: physicochemical
Text: (room temperature). The solubility is a function of pH, and increases with increasing pH, but the long chain fatty acids and other lipids (e.g., cholesterol and related sterols and ceramides) and lipid mimics (e.g., saturated long chain alcohols) still have limited solubility in the surfactant solutions, especially in the pH range of interest, pH less than or equal to 8. Solubility can be determined by visual observation of a series of solutions that were allowed to equilibrate at room temperature for approximately 48 hours. We also determined solubility by absorbance of light at a particular wavelength, where we have used a UV-Vis 96 spectrophotometer well plate reader (Spectra Max, 340 pc Model) with the wavelength set at 500 nm. […] The surfactant solution pH was adjusted to the desired range (usually 6 to 6.6) prior to addition of the lipid. […] In some cases, we have determined solubility by analyzing a dilution series of samples using a UV-Vis 96 spectrophotometer (Spectra Max, Model 340pc). The samples of the dilution series were pipeted into a well plate reader and inserted into the spectrophotometer, which measured absorbance at a wavelength of 500 nm. The solubility limit was determined by extrapolating the absorbance readings to the baseline. These values are reported in Table 2 as determined by Method B.

[4] = Solubility of lipid in 5% surfactant solution, Method B absorbance at 500 nm; format: physicochemical; settings: 5% Miracare SLB, pH 6.0, Method B
Text: Stock solutions of lipid in 5% surfactant solution were mixed in a beaker with an overhead mixer at a temperature above the melting point of the lipid for about an hour. The surfactant solution pH was adjusted to the desired range (usually 6 to 6.6) prior to addition of the lipid. Generally, the lipid concentrations in the stock solutions were at 1% to 2% by weight of solution. The stock solutions were allowed to cool to room temperature. These stock solutions were well above the solubility limit of the lipid as evidenced by considerable cloudiness. The stock solution was gently stirred to achieve a uniform suspension of the lipid insoluble matter, and then added to several small vials (approximately 20 ml capacity) in predetermined amounts. […] In some cases, we have determined solubility by analyzing a dilution series of samples using a UV-Vis 96 spectrophotometer (Spectra Max, Model 340pc). The samples of the dilution series were pipeted into a well plate reader and inserted into the spectrophotometer, which measured absorbance at a wavelength of 500 nm. The solubility limit was determined by extrapolating the absorbance readings to the baseline.

Krafft T [1]: <15 °C
Compound: Sodium tridecethsulfate [Trideceth Sulfate (TDS)]

Compound: CCCCCCCCCCCCOS(=O)(=O)[O-].[Na+] [sodium dodecyl sulfate]
Krafft temperature [2]: 18.4 °C

Compound: CCCCCCCCCCCC(=O)O [Lauric acid]
solubility ([3]; in 5 wt. % SLES1EO/CAPBet solution): approximately 0.08 wt. % | solubility as share of the surfactant weight ([3]; in a 5 wt. % surfactant solution): approximately 16%

Compound: CC(C)CCC[C@@H](C)[C@H]1CC[C@H]2[C@@H]3CC=C4C[C@@H](O)CC[C@]4(C)[C@H]3CC[C@]12C [Cholesterol]
Solubility Limit [4]: ~5 × 10^−3 weight fraction of total solution
